From PubChem BioAssay (NCI)
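Step 1: Grow cells in 96-well plates. Step 2: Expose to compound for 48 hours at 5 concentrations. Step 3: Interpolate endpoints linearly; if unreached, use highest concentration. TGI: total growth inhibition.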

Legend:
Assay in all cases: growth of human tumour cells (NCI), 48 h
[1] = test system: T-47D breast
[2] = test system: UACC-257 melanoma
[3] = test system: SK-OV-3 ovarian
[4] = test system: LOX IMVI melanoma
[5] = test system: HCC-2998 colon
[6] = test system: K-562 leukemia
[7] = test system: NCI-H226 lung
[8] = test system: EKVX NSCLC
[9] = test system: KM12 colon
[10] = test system: IGROV1 ovarian
[11] = test system: DU-145 prostate
[12] = test system: MALME-3M melanoma
[13] = test system: PC-3 prostate
[14] = test system: CAKI-1 renal
[15] = test system: A549 NSCLC
[16] = test system: SNB-19 CNS
[17] = test system: RXF 393 renal
[18] = test system: RPMI-8226 leukemia
[19] = test system: NCI/ADR-RES ovarian
[20] = test system: OVCAR-8 ovarian
[21] = test system: SR leukemia
[22] = test system: HOP-92 NSCLC
[23] = test system: SK-MEL-2 melanoma
[24] = test system: MDA-N
[25] = test system: SW-620 colon
[26] = test system: MDA-MB-231 breast
[27] = test system: BT-549 breast
[28] = test system: HCT-116 colon
[29] = test system: OVCAR-5 ovarian
[30] = test system: U251 CNS
[31] = test system: UACC-62 melanoma
[32] = test system: ACHN renal
[33] = test system: MOLT-4 leukemia
[34] = test system: COLO 205 colon
[35] = test system: 786-0 renal
[36] = test system: SF-268 CNS
[37] = test system: HOP-62 NSCLC
[38] = test system: NCI-H522 lung
[39] = test system: TK-10 renal
[40] = test system: SN12C renal
[41] = test system: OVCAR-4 ovarian
[42] = test system: SF-539 CNS
[43] = test system: NCI-H23 lung
[44] = test system: HCT-15 colon
[45] = test system: SF-295 CNS
[46] = test system: HT29 colon
[47] = test system: HS 578T breast
[48] = test system: M14 melanoma
[49] = test system: SK-MEL-5 melanoma
[50] = test system: OVCAR-3 ovarian
[51] = test system: SK-MEL-28 melanoma
[52] = test system: A498 renal
[53] = test system: MDA-MB-435
[54] = test system: SNB-75 CNS
[55] = test system: UO-31 renal
[56] = test system: MCF7 breast
[57] = test system: HL-60(TB) leukemia
[58] = test system: CCRF-CEM leukemia
[59] = test system: NCI-H460 lung

Measured: TGI

CC12CCC(=O)C=C1CCC1C2C(O)CC2(C)C(c3csc(N)n3)CCC12 (stereo not drawn)
not listed: [57] | [58] | [59]
> 100 µM: all other assays above

CC12Cc3cc4c(cc3C1(c1ccc([N+](=O)[O-])cc1)OCCO2)OCO4 (stereo not drawn)
91.9 µM: [27]
85.1 µM: [10]
51.6 µM: [17]
86.4 µM: [47]
42.3 µM: [26]
46.5 µM: [37]
64 µM: [20]
73.2 µM: [16]
47.6 µM: [3]
57.7 µM: [45]
71.6 µM: [36]
86.7 µM: [7]
not listed: [22] | [54]
> 100 µM: all other assays above
